Converted amounts (≈) assume the structure as drawn.
Key:
[1] = Equilibrium solubility determined after stirring the compound in buffered solution for more than 5 hours at pH 7.4; type: ADME
[2] = target: T1, Cholecystokinin receptor type A (Rattus norvegicus, UniProt P30551); experiment: The compound was tested for binding activity against Cholecystokinin type A receptor from rat pancreas using [125]BH CCK-8s as radioligand.
T1 sequence (P30551 whole entry): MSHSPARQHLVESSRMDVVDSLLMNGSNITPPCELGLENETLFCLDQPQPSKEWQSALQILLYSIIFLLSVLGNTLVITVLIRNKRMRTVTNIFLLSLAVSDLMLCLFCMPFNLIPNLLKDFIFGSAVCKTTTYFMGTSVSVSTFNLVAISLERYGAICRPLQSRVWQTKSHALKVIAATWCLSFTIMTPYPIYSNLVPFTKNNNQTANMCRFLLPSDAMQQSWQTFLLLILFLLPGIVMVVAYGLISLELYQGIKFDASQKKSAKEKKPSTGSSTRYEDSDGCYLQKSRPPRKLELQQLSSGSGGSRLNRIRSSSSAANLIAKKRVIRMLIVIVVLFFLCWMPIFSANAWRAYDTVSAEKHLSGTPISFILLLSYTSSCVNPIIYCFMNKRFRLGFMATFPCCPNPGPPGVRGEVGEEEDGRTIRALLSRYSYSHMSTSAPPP

[3] = Equilibrium solubility determined after stirring the compound in buffered solution for more than 5 hours at pH 8.0; type: ADME
[4] = target: T1, Cholecystokinin receptor type A; experiment: The compound was tested for binding activity against Cholecystokinin type A receptor from rat pancreatic tissue using [125]BH CCK-A as radioligand
[5] = Equilibrium solubility determined after stirring the compound in buffered solution for more than 5 hours at pH 8.00; type: ADME
[6] = Equilibrium solubility determined after stirring the compound in buffered solution for more than 5 hours at pH 7; type: ADME

Row | Compound | solubility thermodynamic at 5 h [1] [µg/mL] | IC50 [2] [nM] | also measured
1 | CN1C(=O)C(NC(=O)Nc2ccc(C(=O)O)cc2)N=C(c2ccccc2)c2ccccc21 (single isomer, unassigned) | 4700 (≈ 11 mM) | 1550 | 
2 | CN1C(=O)[C@@H](NC(=O)Nc2ccc(-c3noc(O)n3)cc2)N=C(c2ccccc2)c2ccccc21 | 410 (≈ 0.875 mM) | 983 | solubility thermodynamic at 5 h [3]: 1660 µg/mL (≈ 3.54 mM)
3 | Cc1ccc(NC(=O)N[C@H]2N=C(c3ccccc3)c3ccccc3N(C)C2=O)cc1 | > 2 | 736 | 
4 | CN1C(=O)[C@H](NC(=O)Nc2ccc(-c3nc(=O)o[nH]3)cc2)N=C(c2ccccc2)c2ccccc21 |  | 15.4 | 
5 | CC(C)CN1C(=O)[C@@H](NC(=O)Nc2ccc(-c3nn[nH]n3)cc2)N=C(c2ccccc2)c2ccccc21 |  |  | IC50 [4]: 1430 nM; solubility thermodynamic at 5 h [5]: > 11 mg/mL; solubility thermodynamic at 5 h [6]: 1400 µg/mL (≈ 2.83 mM)
6 | CC(C)CN1C(=O)[C@H](NC(=O)Nc2ccc(-c3nnn[nH]3)cc2)N=C(c2ccccc2)c2ccccc21 |  | 379 | 
7 | CN1C(=O)[C@@H](NC(=O)Nc2ccc(-c3nnn[nH]3)cc2)N=C(c2ccccc2)c2ccccc21 | 3740 (≈ 8.27 mM) |  | IC50 [4]: 577 nM
8 | CN1C(=O)[C@H](NC(=O)Nc2ccc(-c3nn[nH]n3)cc2)N=C(c2ccccc2)c2ccccc21 |  | 6.16 | 

From ChEMBL document CHEMBL1127664, “Second-generation benzodiazepine CCK-B antagonists. Development of subnanomolar analogs with selectivity and water solubility” (J Med Chem, 1994)
